Literature values in patent US8580245B2, “Compositions and methods for treating and preventing cardiomyopathy and heart disease” (The Regents of the University of Michigan, priority 2005, dated 2013).

System: elderly men with isolated diastolic dysfunction
Details: verapamil vs placebo, 20 elderly men, p<0.05

## COc1ccc(CCN(C)CCCC(C#N)(c2ccc(OC)c(OC)c2)C(C)C)cc1OC (stereo not shown) [verapamil]
  exercise time increase: 33%
  heart rate decrease: 10%
  peak left ventricular filling rate increase: 30%
  symptoms: improved
